Measurements as given in patent US20230279016A1, “Tetrahydropyrazolopyrimidines and Related Analogs for Inhibiting YAP/TAZ-TEAD” (THE KATHOLIEKE UNIVERSITEIT LEUVEN, priority 2021, published 2023).

Legend:
Type in all cases: cell-based
[1] = test system: YAP/TAZ-TEAD transcription; experiment: Reporter gene assay for measuring the inhibition of YAP/TAZ-TEAD transcription (TEAD-responsive element luciferase reporter in Hek293T cells); conditions: Hek293T cells transiently transfected with TEAD-responsive element luciferase reporter, 24 hours incubation
Procedure, shortened: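 Hek293T cells transiently transfected with TEAD-responsive luciferase reporter, exposed to compound for 24 h at 37° C/5% CO2, then read by luminescence. Percent inhibition normalized to vehicle (0%) and positive control inhibitor (100%); EC50 reported as activity ranges.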

[2] = test system: NCI-H226 mesothelioma cell line; experiment: Mesothelioma cell line proliferation assay, NCI-H226; conditions: NCI-H226, 6 days with compound, cell viability by ATPlite
Procedure: (§1) Mesothelioma cell lines, NCI-H226 and NCI-H2052 (all sourced from the ATCC cell culture collection) are plated in 96-well plates (Corning® 96 Well White Polystyrene Microplate clear flat bottom, white polystyrene (TC-Treated)), at 1500 cells/well in full medium (RPMI 1640 ATCC modification with L-glutamine, HEPES, Phenol Red, Sodium Pyruvate, High glucose, Low sodium bicarbonate and 10% fetal bovine serum). Cells are incubated overnight at 37° C. in an incubator with 5% CO2. Then compounds, dissolved in DMSO, are added in dose-response. Cells are incubated with compound dilutions for another 6 days at 37° C. in an incubator with 5% CO2. Cell viability is quantitated using the ATPlite kit (Perkin-Elmer) and the luminescence is read-out using an Envision instrument (Perkin-Elmer). The amount of relative light units produced using the ATPlite kit is used to calculated percent of inhibition.
(§2) The activities of example compounds tested are depicted in the table below. The activity ranges A, B and C refer to EC50 values in the mesothelioma cell line proliferation assay as described as follows: “A”: EC50 <1 μM; “B” : 1 μM EC50 ≤10 μM and “C” : EC50 >10 μM. NT: not tested.

[3] = test system: NCI-H2052 mesothelioma cell line; experiment: Mesothelioma cell line proliferation assay, NCI-H2052; conditions: NCI-H2052, 6 days with compound, cell viability by ATPlite
Procedure: as §1, §2

| SMILES | EC50 [1] | EC50 [2] | EC50 [3] | EC50 ([1]; Homo sapiens, HEK-293T, 24 h) | EC50 ([2]; Homo sapiens, NCI-H226, 144 h) | EC50 ([3]; Homo sapiens, NCI-H2052, 144 h) |
| --- | --- | --- | --- | --- | --- | --- |
| C=CC(=O)NCC1CN(c2ccc(C(F)(F)F)nc2)c2ccnn2C1 (stereo not drawn) [Cpd. No. 007, N-((4-(6-(trifluoromethyl)pyridin-3-yl)-4,5,6,7-tetrahydropyrazolo[1,5-a]pyrimidin-6-yl)methyl)acrylamide] | – | – | – | < 1 µM | > 10 µM | > 10 µM |
| C=CC(=O)NCC1CN(c2ccc(C3CC3)cc2)c2ccnn2C1 (single isomer, unassigned) [Cpd. No. 022-En2, (R)- or (S)-N-((4-(4-cyclopropylphenyl)-4,5,6,7-tetrahydropyrazolo[1,5-a]pyrimidin-6-yl)methyl)acrylamide] | < 1 µM | < 1 µM | > 10 µM | – | – | – |
| C=CC(=O)NCC1CN(c2ccc(C3CC3)cc2)c2ccnn2C1 (single isomer, unassigned) [Cpd. No. 022-En1, (R)- or (S)-N-((4-(4-cyclopropylphenyl)-4,5,6,7-tetrahydropyrazolo[1,5-a]pyrimidin-6-yl)methyl)acrylamide] | – | – | < 1 µM | < 1 µM | < 1 µM | – |
| C=CC(=O)NCC1CN(c2ccc(OC(F)F)cc2)c2ccnn2C1 (single isomer, unassigned) [Cpd. No. 012-En2, (R)- or (S)-N-((4-(4-(difluoromethoxy)phenyl)-4,5,6,7-tetrahydropyrazolo[1,5-a]pyrimidin-6-yl)methyl)acrylamide] | < 1 µM | < 1 µM | > 10 µM | – | – | – |
| C=CC(=O)NC[C@@H]1CN(Cc2ccccc2)c2ccnn2C1 (single isomer, unassigned) [Cpd. No. 049-En1, (R)- or (S)-((4-benzyl-4,5,6,7-tetrahydropyrazolo[1,5-a]pyrimidin-6-yl)methyl)acrylamide] | > 20 µM | 1 to 10 µM | 1 to 10 µM | – | – | – |
| C=CC(=O)NCC1Cc2c(cnn2Cc2cccc(C(N)=O)c2)N(c2ccc(C(F)(F)F)cc2)C1 (stereo not drawn) [Cpd. No. 080, 3-((6-(acrylamido-methyl)-4-(4-(trifluoromethyl)phenyl)-4,5,6,7-tetrahydro-1H-pyrazolo[4,3-b]pyridin-1-yl)methyl)benzamide] | – | – | – | < 1 µM | < 1 µM | < 1 µM |
| C=CC(=O)NC[C@H]1Cc2nn(C(F)F)cc2N(c2ccc(C(F)(F)F)cc2)C1 (single isomer, unassigned) [Cpd. No. 085-En1, (R)- or (S)-N-(2-(difluoromethyl)-4-(4-(trifluoromethyl)phenyl)-4,5,6,7-tetrahydro-2H-pyrazolo[4,3-b]pyridin-6-yl)methyl)acrylamide] | < 1 µM | < 1 µM | < 1 µM | – | – | – |
| C=CC(=O)NC1CN(c2ccc(OC(F)(F)F)cc2)c2ccnn2C1 (stereo not drawn) [Cpd. No. 063, N-(4-(4-(trifluoromethoxy)phenyl)-4,5,6,7-tetrahydropyrazolo[1,5-a]pyrimidin-6-yl)acrylamide] | – | – | – | < 1 µM | < 1 µM | < 1 µM |
| C=CC(=O)NCC1CN(c2ccc(C(C)C)cc2)c2ccnn2C1 (single isomer, unassigned) [Cpd. No. 013-En1, (R)- or (S)-N-((4-(4-isopropylphenyl)-4,5,6,7-tetrahydropyrazolo[1,5-a]pyrimidin-6-yl)methyl)acrylamide] | < 1 µM | < 1 µM | < 1 µM | – | – | – |
| C=CC(=O)NCC1CN(c2ccc(C(C)C)cc2)c2ccnn2C1 (single isomer, unassigned) [Cpd. No. 013-En2, (R)- or (S)-N-((4-(4-ispropylphenyl)-4,5,6,7-tetrahydropyrazolo[1,5-a]pyrimidin-6-yl)methyl)acrylamide] | < 1 µM | < 1 µM | 1 to 10 µM | – | – | – |
| C=CC(=O)NC1CN(c2ccc(C(F)(F)F)cc2)c2ccnn2C1 (stereo not drawn) [Cpd. No. 061, N-(4-(4-(trifluoromethyl)phenyl)-4,5,6,7-tetrahydropyrazolo[1,5-a]pyrimidin-6-yl)acrylamide] | – | – | – | < 1 µM | < 1 µM | < 1 µM |
| C=CC(=O)NCC1Cc2nn(C)cc2N(c2ccc(C(F)(F)F)cc2)C1 (stereo not drawn) [Cpd. No. 069, N-((2-methyl-4-(4-(trifluoromethyl)phenyl)-4,5,6,7-tetrahydro-2H-pyrazolo[4,3-b]pyridin-6-yl)methyl)acrylamide] | – | – | – | < 1 µM | < 1 µM | < 1 µM |
| FC(F)(F)c1ccc(N2CC(C3CC(Br)=NO3)Cn3nccc32)cc1 (single isomer, unassigned) [Cpd. No. 086-Dia2, 3-bromo-5-(4-(4-(trifluoromethyl)phenyl)-4,5,6,7-tetrahydropyrazolo[1,5-a]pyrimidin-6-yl)-4,5-dihydroisoxazole] | < 1 µM | < 1 µM | < 1 µM | – | – | – |
| C=C(C)C(=O)NCC1CN(c2ccc(C(F)(F)F)cc2)c2ccnn2C1 (stereo not drawn) [Cpd. No. 040, N-((4-(4-(trifluoromethyl)phenyl)-4,5,6,7-tetrahydropyrazolo[1,5-a]pyrimidin-6-yl)methyl)methacrylamide] | – | – | – | < 1 µM | < 1 µM | > 10 µM |

More lines, now with the values ahead:

| EC50 [1] | EC50 [2] | EC50 [3] | EC50 ([1]; Homo sapiens, HEK-293T, 24 h) | EC50 ([2]; Homo sapiens, NCI-H226, 144 h) | EC50 ([3]; Homo sapiens, NCI-H2052, 144 h) | SMILES |
| --- | --- | --- | --- | --- | --- | --- |
| < 1 µM | > 10 µM | 1 to 10 µM | – | – | – | C=CC(=O)NCC1CN(c2ccc(SC(F)(F)F)cc2)c2ccnn2C1 (single isomer, unassigned) [Cpd. No. 020-En2, (R)- or (S)-N-((4-(4-((trifluoromethyl)thio)phenyl)-4,5,6,7-tetrahydropyrazolo[1,5-a]pyrimidin-6-yl)methyl)acrylamide] |
| – | – | – | < 1 µM | < 1 µM | < 1 µM | C=CC(=O)NCC1CN(c2ccc(C(F)(F)F)c(F)c2)c2ccnn2C1 (stereo not drawn) [Cpd. No. 015, N-((4-(3-fluoro-4-(trifluoromethyl)phenyl)-4,5,6,7-tetrahydropyrazolo[1,5-a]pyrimidin-6-yl)methyl)acrylamide] |
| – | – | – | < 1 µM | < 1 µM | < 1 µM | C=CC(=O)NCC1CN(c2ccc(C(F)(F)F)cc2)c2cc(C(F)(F)F)nn2C1 (stereo not drawn) [Cpd. No. 034, N-((2-(trifluoromethyl)-4-(4-(trifluoromethyl)phenyl)-4,5,6,7-tetrahydropyrazolo[1,5-a]pyrimidin-6-yl)methyl)acrylamide] |
| – | – | – | < 1 µM | < 1 µM | < 1 µM | C=CC(=O)NCC1Cc2nn(Cc3cccc(C(N)=O)c3)cc2N(c2ccc(C(F)(F)F)cc2)C1 (stereo not drawn) [Cpd. No. 081, 3-((6-(acrylamidomethyl)-4-(4-(trifluoromethyl)-phenyl)-4,5,6,7-tetrahydro-2H-pyrazolo[4,3-b]pyridin-2-yl)methyl)benzamide] |
| – | – | < 1 µM | < 1 µM | < 1 µM | – | C=CC(=O)NCC1CN(c2ccc(C(F)(F)F)cc2F)c2ccnn2C1 (stereo not drawn) [Cpd. No. 016, N-((4-(2-fluoro-4-(trifluoromethyl)phenyl)-4,5,6,7-tetrahydropyrazolo[1,5-a]pyrimidin-6-yl)methyl)acrylamide] |
| < 1 µM | < 1 µM | > 10 µM | – | – | – | C=CC(=O)NCC1CN(c2ccc(OC(F)(F)F)cc2F)c2ccnn2C1 (single isomer, unassigned) [Cpd. No. 019-En2, (R)- or (S)-N-((4-(2-fluoro-4-(trifluoromethoxy)phenyl)-4,5,6,7-tetrahydropyrazolo[1,5-a]pyrimidin-6-yl)methyl)acrylamide] |
